pIC50: −log10 of the molar value. Like-named read-outs stand apart in the source and are kept apart here.
What was measured:
[1] = target: T1, pendrin (Homo sapiens, UniProt O43511); test: YFP (EYFP-HIF) fluorescence quenching assay of pendrin-mediated Cl− exchange (SCN−, I−, NO3−) in FRT cells; high-throughput screen; assay type: cell-based; design: expressed in transfected cells; settings: for inhibition at 25 µM: FRT, read-out: Inh. (%), percentage inhibition of human pendrin
T1 sequence (O43511 1-780): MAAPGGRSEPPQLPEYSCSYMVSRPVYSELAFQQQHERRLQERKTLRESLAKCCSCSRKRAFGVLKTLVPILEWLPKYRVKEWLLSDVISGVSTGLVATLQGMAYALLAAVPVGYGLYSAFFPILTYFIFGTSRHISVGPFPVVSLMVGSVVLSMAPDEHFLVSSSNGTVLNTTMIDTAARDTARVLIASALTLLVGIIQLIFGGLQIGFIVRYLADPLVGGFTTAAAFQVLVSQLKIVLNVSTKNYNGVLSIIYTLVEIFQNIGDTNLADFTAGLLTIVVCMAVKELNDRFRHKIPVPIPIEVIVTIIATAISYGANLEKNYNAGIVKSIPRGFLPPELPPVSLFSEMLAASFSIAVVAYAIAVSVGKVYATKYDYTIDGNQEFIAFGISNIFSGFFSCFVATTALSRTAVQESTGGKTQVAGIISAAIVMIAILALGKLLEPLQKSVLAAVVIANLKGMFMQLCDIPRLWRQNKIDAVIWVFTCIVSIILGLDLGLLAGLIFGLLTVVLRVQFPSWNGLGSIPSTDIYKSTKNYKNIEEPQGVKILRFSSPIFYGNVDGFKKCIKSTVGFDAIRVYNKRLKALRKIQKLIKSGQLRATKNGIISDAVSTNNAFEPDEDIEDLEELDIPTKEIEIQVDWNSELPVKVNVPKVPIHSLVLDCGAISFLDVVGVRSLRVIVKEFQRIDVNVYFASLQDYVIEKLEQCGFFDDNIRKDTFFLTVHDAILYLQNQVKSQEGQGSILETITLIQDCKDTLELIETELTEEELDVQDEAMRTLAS
Method: Fischer rat thyroid (FRT) cells were cultured in Kaign's modified Ham's F12 medium supplemented with 10% FBS, 2 mM L-glutamine, 100 U/ml penicillin, […], […] myo-inositol and […] ascorbic acid. For high-throughput screening, FRT cells were stably transfected with EYFP-H148Q/I152L/F46L (EYFP-HIF; in pcDNA3.1/Hygro (+)), isolated using 0.25 mg/ml hygromycin B, and then transfected with pcDNA3.1 (+) encoding human pendrin with clonal cell lines selected using 0.5 mg/ml G418.
High-throughput screening was performed using a semi-automated screening platform (Beckman, Fullerton, Calif.) configured as described. FRT cells expressing human pendrin and EYFP-HIF were plated in 96-well black-walled, clear-bottom tissue culture plates (Corning, Corning, N.Y.) at a density of 20,000 cells/well, and cultured to confluence over 48 h. For screening, plates were washed twice with PBS (in mM: 137 NaCl, 2.7 KCl, 1.1 KH2PO4, 8.1 Na2HPO4, 0.9 CaCl2), 0.5 MgCl2) prior to addition of 100 μl PBS containing test compounds. Screening was done with ˜36,000 compounds from ChemDiv (San Diego, Calif.), TimTec (Newark, Del.), and Asinex (Winston-Salem, N.C.). After 10 min incubation with test compound, plates were transferred to a Tecan Infinite M1000 plate reader (Tecan, Morrisville, N.C.) for fluorescence assay of pendrin activity. The assay duration was 10 s with initial fluorescence intensity recorded for 2 s prior to addition of 100 μl of NaSCN-substituted PBS (137 mM NaCl replaced with NaSCN). All assay plates contained negative controls (DMSO). In some experiments Cl^− exchange for I^− or NO3^− was measured similarly using NaI and NaNO3-substituted PBS. Control experiments to measure basal ion transport rates were done in FRT cells expressing EYFP-HIF without pendrin.
FRT cells were chosen for screening due to their low intrinsic permeability to anions that are transported by pendrin. As depicted in FIGS. 1A and 2A, pendrin activity was assayed from the kinetics of the halide-sensitive fluorescent protein EYFP-HIF in response to addition of a SCN^−-containing solution to drive pendrin-mediated Cl^−/SCN^−. Pendrin inhibition reduces the rate of EYFP-HIF quenching. PDSinh-A01 land PDSinh-C01 decreased pendrin-mediated Cl^−/SCN^− and Cl^−/I^− exchange in a concentration-dependent manner, as measured by YFP fluorescence quenching. […] Because the only previously-described pendrin inhibitor is the weakly active compound niflumic acid, no positive control was included in the screening plates.

[2] = test system: CaCC; test: Short-circuit current (Isc) analysis in IL-13-treated HBE cells, ATP response; assay type: cell-based, human; settings: 25 μM, 30 min pre-treatment
Method: Further experiments were done with PDSinh-A01 because of its greater inhibition potency for Cl^−/HCO3^− exchange than PDSinh-C01. To investigate PDSinh-A01 specificity, the major ion transport pathways in HBE cells were studied by short-circuit current (Isc) analysis. Cells were treated with IL-13 to increase Ca^2+-activated Cl^− conductance (CaCC) activity. For Isc measurements, cells were sequentially treated with amiloride to inhibit the epithelial sodium channel (ENaC), forskolin to activate the cystic fibrosis transmembrane conductance regulator (CFTR), CFTRinh-172 to inhibit CFTR, and ATP to activate CaCC. In the absence of PDSinh-A01, ion channel modulators produced the anticipated changes in Isc (FIG. 4A).
IL-13-treated HBE cells were cultured on Snapwell clear permeable supports (12 mm diameter, 0.4 μm polyester membrane, Costar, Corning, Corning, N.Y.). Short-circuit current was measured using symmetrical HCO3^−-buffered solutions (in mM: 120 NaCl, 5 KCl, 1 MgCl2, 1 CaCl2, 5 Hepes, 25 NaHCO3; pH 7.4) as described, with ion transport modulators added to both apical and basolateral bathing solutions. Cells were equilibrated with 95% O2/5% CO2 and maintained at 37° C. during data acquisition. Statistical analysis was by Student's t-test.

pIC50 ([1]; Cl−/I− exchange, read-out: IC50 for Cl−/I− exchange)	pIC50 ([1]; Cl−/NO3− exchange, read-out: IC50 for Cl−/NO3− exchange)	time at which ~IC50 (half inhibition) was displayed, inhibition kinetics ([1]; Cl−/SCN− exchange, 10 μM added for indicated times) [min]	pIC50 ([1]; Cl−/SCN− exchange, read-out: IC50 for Cl−/SCN− exchange)	inhibition at 25 µM [1] [%]	reversibility of inhibition by washout ([1]; washout)	Compound	effect on CaCC activity (Isc response) [2]
~5.10	~5.30	5	~5.05	~100	reversible	Cn1nc(COc2cccc(F)c2)c2c1CCN(C(=O)Nc1ccc(Cl)cc1)C2 [PDSinh-A01]	did not affect the activity
				83		Cc1n[nH]c(-c2cc(S(=O)(=O)NC3CCCc4ccccc43)c(C)s2)c1C (centres unmarked) [PDSinh-C01]	

Reference: US10702506B2, “Small molecule inhibitors of pendrin ion exchange and pharmaceutical compositions” (THE REGENTS OF THE UNIVERSITY OF CALIFORNIA, priority 2016, dated 2020)
